Assay results published in patent US8822482B2, “Icotinib hydrochloride, synthesis, crystalline forms, pharmaceutical compositions, and uses thereof” (Beta Pharma, Inc., priority 2008, dated 2014).
Read-outs that look alike come from different tables or passages of the source.

Assays:
P450 enzymes = experiment: Induction of P450 enzymes in rat liver; assay type: in vivo
Description: In addition, non-clinical pharmacokinetic studies of Icotinib hydrochloride Crystalline Form I in Beagle dogs and rats were conducted.

[1] = Pharmacology and toxicology experiments, safety pharmacology; assay type: in vivo, Beagle dogs, mice, and rats
Description: Pharmacology and toxicology experiments in Beagle dogs, mice, and rats using Icotinib hydrochloride Crystalline Form I were also conducted.

[2] = Phase I clinical safety study, single doses of tablets; assay type: in vivo, human; details: 25-1025 mg single doses, 76 subjects
[3] = tested on: human A431 (human epidermoid carcinoma cell line) xenograft tumor; experiment: Tumor inhibition on human A431 xenograft in nude mice; assay type: in vivo, BALB/C nude mice
Description: This was a preliminary study to compare Icotinib hydrochloride Crystalline Form I with erlotinib hydrochloride on inhibition of human A431 (human epidermoid carcinoma cell line) xenograft tumor.
Methods: The high EGFR-expressing human A431 (human epidermoid carcinoma cell line) cell line was selected for the xenograft study.
Tumor transplantation method: A431 human epidermoid cancer cells were inoculated subcutaneously in the right armpit of BALB/C nude mice to generate tumor nodules. These nodules were harvested, cut into 6 mm^3 blocks for routine inoculation and implanted into each mouse for the study. When tumors reached approximately 20 mm^3 in size (6-7 days), the animals were randomly divided into 4 groups of 6-9 animals/each group and body weights were recorded. The groups consisted of a control group (no drug treatment), an erlotinib hydrochloride treatment group (200 mg/kg) and high and low dose Icotinib hydrochloride Crystalline Form I treatment groups (200 and 50 mg/kg). Drugs were administered by oral gavage once daily; dosing frequency depended on the individual case for tumor growth. Tumor volume [tumor volume (V)=tumor size (L)×short diameter of tumor (S)^2/2] was measured using calipers once every 3 days. The animals were sacrificed 24-hour after the last drug administration and weighed. The tumor was removed and weighed to accurately calculate the tumor size. All group data was analyzed using the t test. If the p value was <0.05, it was considered to be statistically significant. Efficacy determination: tumor inhibition rate=[1−treatment group mean tumor weight (T)/control group mean tumor weight (C)]×100%

[4] = tested on: H460 human lung adenocarcinoma xenograft; assay type: in vivo
[5] = tested on: advanced non-small cell lung cancer (NSCLC); experiment: Phase IIa clinical trial in advanced NSCLC patients; assay type: in vivo, human
Description: Definitions of terms used: PR: partial remission, CR: complete remission, SD: stable disease, PD: progression of disease, ORR: objective response rate, DCR: disease control rate.

EGFR tyrosine kinase = EGFR tyrosine kinase (Homo sapiens, UniProt P00533); experiment: Inhibition of EGFR tyrosine kinase, 32P-ATP Crk substrate phosphorylation, polyacrylamide gel electrophoresis; assay type: biochemical; details: for inhibition at 0.0625 µM: 62.5 nM
Sequence of EGFR tyrosine kinase (P00533 25-1210): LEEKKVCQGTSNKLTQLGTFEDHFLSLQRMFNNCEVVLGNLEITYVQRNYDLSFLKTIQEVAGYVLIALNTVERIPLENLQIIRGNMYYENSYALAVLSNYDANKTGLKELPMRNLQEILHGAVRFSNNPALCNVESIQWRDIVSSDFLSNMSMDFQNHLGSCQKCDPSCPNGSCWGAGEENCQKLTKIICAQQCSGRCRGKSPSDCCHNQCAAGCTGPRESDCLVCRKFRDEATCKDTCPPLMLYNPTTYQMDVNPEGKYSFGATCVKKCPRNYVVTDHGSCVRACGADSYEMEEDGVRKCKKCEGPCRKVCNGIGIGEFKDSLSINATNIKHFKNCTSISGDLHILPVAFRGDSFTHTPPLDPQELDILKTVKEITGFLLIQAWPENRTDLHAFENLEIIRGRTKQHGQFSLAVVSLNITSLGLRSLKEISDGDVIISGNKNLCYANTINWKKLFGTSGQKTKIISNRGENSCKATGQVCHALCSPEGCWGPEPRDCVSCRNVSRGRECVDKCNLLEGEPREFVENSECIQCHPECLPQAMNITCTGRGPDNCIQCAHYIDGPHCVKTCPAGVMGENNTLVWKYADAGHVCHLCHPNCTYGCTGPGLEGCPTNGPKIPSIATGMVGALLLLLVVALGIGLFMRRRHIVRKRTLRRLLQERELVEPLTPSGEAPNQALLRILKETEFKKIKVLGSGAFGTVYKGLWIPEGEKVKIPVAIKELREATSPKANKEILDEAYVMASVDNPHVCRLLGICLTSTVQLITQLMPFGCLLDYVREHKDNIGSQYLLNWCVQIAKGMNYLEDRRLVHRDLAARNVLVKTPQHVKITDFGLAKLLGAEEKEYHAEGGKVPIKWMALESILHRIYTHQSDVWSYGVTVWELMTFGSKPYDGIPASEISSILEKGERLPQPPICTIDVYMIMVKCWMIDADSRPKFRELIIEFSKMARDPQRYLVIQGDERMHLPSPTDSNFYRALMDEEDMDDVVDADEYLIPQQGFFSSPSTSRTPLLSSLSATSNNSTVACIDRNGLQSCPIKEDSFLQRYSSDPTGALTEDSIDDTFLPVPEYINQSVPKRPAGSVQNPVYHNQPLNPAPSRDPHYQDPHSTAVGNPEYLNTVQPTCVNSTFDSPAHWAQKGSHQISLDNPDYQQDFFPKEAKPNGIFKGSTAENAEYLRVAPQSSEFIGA
Description: (§1) Method: This method is based on the ability of protein kinases to catalyze substrate phosphorylation; radioisotope ^32P-labeled ATP (^32P-γ-ATP) is utilized in the reaction system to radioactively tag the protein substrate with ^32P. After separation and isolation of the protein substrate by polyacrylamide gel electrophoresis, the intensity of the radioactive ^32P-labeled protein substrate is recorded.
(§2) The kinase reaction buffer included 1 μM of non-isotope labeled-ATP. […] The mixture was incubated on ice for 10 min, and 1 μCi of ^32P-γ-ATP was then added. After incubation at 30° C. for 20 min, SDS (sodium dodecyl sulfate) sample buffer was added, and the mixture was boiled in a 100° C. water bath for 4 min. The samples were separated by 10% SDS-PAGE. After vacuum drying of the polyacrylamide gel, the intensity of radioactively labeled proteins were measured and recorded using a Phosphorimager (Molecular Dynamics Inc.). The signal was quantitatively analyzed utilizing ImageQuant software. The degree of Crk substrate phosphorylation was used to estimate the activity of the kinase. Inhibition (%)=(1−kinase activity of the test group/kinase activity of control group)×100%

[6] = target: Arg (abl-related gene) tyrosine kinase (Homo sapiens, UniProt P42684); experiment: Selectivity: inhibition of Arg tyrosine kinase, Crk substrate phosphorylation, same methodology; assay type: biochemical; details: 62.5 nM
Sequence of Arg (abl-related gene) tyrosine kinase (P42684 whole entry): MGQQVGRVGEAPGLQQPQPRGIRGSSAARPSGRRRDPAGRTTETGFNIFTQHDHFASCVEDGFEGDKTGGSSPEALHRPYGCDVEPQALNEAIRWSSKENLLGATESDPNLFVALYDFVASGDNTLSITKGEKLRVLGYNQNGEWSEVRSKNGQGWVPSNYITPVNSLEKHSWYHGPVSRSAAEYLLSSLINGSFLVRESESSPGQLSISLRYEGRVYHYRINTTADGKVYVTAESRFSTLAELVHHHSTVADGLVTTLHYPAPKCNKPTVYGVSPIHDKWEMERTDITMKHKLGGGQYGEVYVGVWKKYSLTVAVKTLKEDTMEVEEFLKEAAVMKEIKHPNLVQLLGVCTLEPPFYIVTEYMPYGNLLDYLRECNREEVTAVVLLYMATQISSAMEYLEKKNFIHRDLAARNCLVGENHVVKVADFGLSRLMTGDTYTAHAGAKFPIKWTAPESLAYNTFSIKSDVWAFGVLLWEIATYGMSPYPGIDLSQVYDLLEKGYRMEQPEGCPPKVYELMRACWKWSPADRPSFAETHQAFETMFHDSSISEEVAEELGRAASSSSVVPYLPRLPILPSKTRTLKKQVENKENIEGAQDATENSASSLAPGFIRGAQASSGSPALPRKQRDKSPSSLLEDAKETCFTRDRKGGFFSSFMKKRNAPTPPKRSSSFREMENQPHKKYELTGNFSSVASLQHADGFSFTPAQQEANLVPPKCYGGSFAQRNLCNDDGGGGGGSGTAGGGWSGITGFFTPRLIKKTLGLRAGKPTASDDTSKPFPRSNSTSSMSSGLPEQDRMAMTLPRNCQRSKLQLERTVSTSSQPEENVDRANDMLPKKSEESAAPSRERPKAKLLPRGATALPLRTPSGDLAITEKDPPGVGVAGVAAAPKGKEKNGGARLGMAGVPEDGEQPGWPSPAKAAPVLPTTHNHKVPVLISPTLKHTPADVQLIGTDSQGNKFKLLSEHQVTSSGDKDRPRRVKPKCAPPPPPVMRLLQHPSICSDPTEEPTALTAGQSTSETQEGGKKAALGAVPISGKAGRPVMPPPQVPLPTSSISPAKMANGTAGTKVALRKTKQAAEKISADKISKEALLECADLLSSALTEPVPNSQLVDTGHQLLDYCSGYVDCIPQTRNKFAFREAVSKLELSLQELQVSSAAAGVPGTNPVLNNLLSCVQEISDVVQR
Description: as §1, §2

[7] = 225 mg/day (75 mg, 3 times a day)
[8] = 300 mg/day (100 mg, 3 times a day)
[9] = 300 mg/day (150 mg, Twice a day)
[10] = 375 mg/day (125 mg, 3 times a day)
[11] = 400 mg/day (200 mg, Twice a day)
[12] = 450 mg/day (150 mg, 3 times a day)
[13] = 600 mg/day (200 mg, 3 times a day)

With C#Cc1cccc(Nc2ncnc3cc4c(cc23)OCCOCCOCCO4)c1.Cl [4-[(3-ethynyl-phenyl)amino]-6,7-benzo-12-crown-quinazoline hydrochloride] the “induction effect on P450 enzymes” value (P450 enzymes) was “No significant induction effect”, the bone marrow toxicity ([1]; Beagle dogs, mice, and rats) was “no bone marrow toxicity” and the liver toxicity ([1]; Beagle dogs, mice, and rats) was “reversible liver toxicity”. For the same molecule, the oral toxicity ([1]; Beagle dogs, mice, and rats) was “low oral toxicity”, the “teratogenic, mutagenic and reproductive toxicity” value ([1]; additional toxicity testing) was “no teratogenic, mutagenic and reproductive toxicity” and the “effect on autonomic nervous system activity or the central nervous system” value ([1]; safety pharmacological test) was “no effect”. For the same molecule, the “effect on respiration, blood pressure and circulatory function” value ([1]; safety pharmacological test) was “no effect”, the “clinical safety of single doses” value [2] was “safe” and the “body weight and appearance at experiment termination” value ([3]; A431 xenograft nude mice) was “gained weight”. For the same molecule, the tumor inhibition rate ([3]; A431 xenograft, 200 mg/kg oral gavage once daily (later reduced to 100 mg/kg)) was 64.6%, the toxic effects ([3]; at either dose (200 and 50 mg/kg)) was “No toxic effects were observed” and the “anti-tumor effect (in words)” value ([3]; given orally, A431 xenograft mouse model) was “significant anti-tumor effects”. For the same molecule, the “H460 tumor inhibition rate” value ([4]; 30 mg/kg oral gavage once daily for 14 days) was 37.5%, the “H460 tumor inhibition rate” value ([4]; 60 mg/kg oral gavage once daily for 14 days) was 49.3% and the “H460 tumor inhibition rate” value ([4]; 120 mg/kg oral gavage once daily for 14 days) was 52.0%. For the same molecule, the “CR (complete remission), number of patients” value (from here on “CR (complete remission)”) [5, 7] was 0, the “DCR (disease control rate)” value [5, 7] was 85.70% and the “ORR (objective response rate)” value [5, 7] was 0.00%. The “PD (progression of disease), number of patients” value (“PD (progression of disease)” below) [5, 7] was 1, the “PR (partial remission), number of patients” value (shortened to “PR (partial remission)”) [5, 7] was 0 and the “CR (complete remission)” value [5, 8] was 2. For the same molecule, the “DCR (disease control rate)” value [5, 8] was 62.96%, the “ORR (objective response rate)” value [5, 8] was 25.93% and the “PD (progression of disease)” value [5, 8] was 10. The “PR (partial remission)” value [5, 8] was 5, the “CR (complete remission)” value [5, 9] was 1 and the “DCR (disease control rate)” value [5, 9] was 69.57%. For the same molecule, the “ORR (objective response rate)” value [5, 9] was 30.43%, the “PD (progression of disease)” value [5, 9] was 4 and the “PR (partial remission)” value [5, 9] was 6. The “CR (complete remission)” value [5, 10] was 0, the “DCR (disease control rate)” value [5, 10] was 91.70% and the “ORR (objective response rate)” value [5, 10] was 37.50%. The “PD (progression of disease)” value [5, 10] was 2, the “PR (partial remission)” value [5, 10] was 9 and the “CR (complete remission)” value [5, 11] was 0. For the same molecule, the “DCR (disease control rate)” value [5, 11] was 55.56%, the “ORR (objective response rate)” value [5, 11] was 0.00% and the “PD (progression of disease)” value [5, 11] was 3. For the same molecule, the “PR (partial remission)” value [5, 11] was 0, the “CR (complete remission)” value [5, 12] was 0 and the “DCR (disease control rate)” value [5, 12] was 90.10%. The “ORR (objective response rate)” value [5, 12] was 45.45%, the “PD (progression of disease)” value [5, 12] was 1 and the “PR (partial remission)” value [5, 12] was 5. For the same molecule, the “CR (complete remission)” value [5, 13] was 0, the “DCR (disease control rate)” value [5, 13] was 66.67% and the “ORR (objective response rate)” value [5, 13] was 0.00%. The “PD (progression of disease)” value [5, 13] was 1, the “treatment of non-small cell lung cancer (in words)” value ([5]; advanced NSCLC patients, oral tablets) was “effective” and the inhibition at 0.0005 µM (EGFR tyrosine kinase; 0.5 nM, read-out: inhibition rate of EGFR kinase activity) was 20.5%. It also gave an inhibition at 0.0025 µM (EGFR tyrosine kinase; 2.5 nM, read-out: inhibition rate of EGFR kinase activity) of 36.6%, an inhibition at 0.0125 µM (EGFR tyrosine kinase; 12.5 nM, read-out: inhibition rate of EGFR kinase activity) of 63% and an inhibition at 0.0625 µM (EGFR tyrosine kinase; parallel comparison with Arg kinase, read-out: inhibition of EGFR kinase) of 97%. For the same molecule, the inhibition at 0.0625 µM (EGFR tyrosine kinase; read-out: inhibition rate of EGFR kinase activity) was 87.6%, the IC50 (EGFR tyrosine kinase; from the dose-response curve, read-out: IC50 to inhibit EGFR kinase activity) was 5 nM and the “inhibition of Arg kinase” value [6] was “did not inhibit”.
